Measured values as given in the supplement of paper PMC6411743.

Compound: Nc1ncnc2c1ncn2[C@@H]1O[C@H](COP(=O)(O)OP(=O)(O)OP(=O)(O)O)[C@@H](O)[C@H]1O [adenosine triphosphate]
Assay: pEC50 of ATP-induced change in protein thermal stability (2D-TPP)
Outline: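 Jurkat crude lysate was treated for 10 min at room temperature with five concentrations including vehicle, heated to 12 temperatures (42–63.9 °C) for 3 min, and given NP40 and benzonase (60 min, 4 °C). After ultracentrifugation, soluble protein was quantified by TMT LC-MS/MS, with fold changes against vehicle per temperature, median-normalised. pEC50 comes from dose-response fits per replicate over adjacent temperature pairs, with hits called by permutation-based false discovery rate control. Three independent experiments.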
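Further: lysate dosed with Na-ATP at 0 0.005 0.05 0.5 and 2 mM.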

Sequence of UniProt Q9UNY4 (Q9UNY4 whole entry): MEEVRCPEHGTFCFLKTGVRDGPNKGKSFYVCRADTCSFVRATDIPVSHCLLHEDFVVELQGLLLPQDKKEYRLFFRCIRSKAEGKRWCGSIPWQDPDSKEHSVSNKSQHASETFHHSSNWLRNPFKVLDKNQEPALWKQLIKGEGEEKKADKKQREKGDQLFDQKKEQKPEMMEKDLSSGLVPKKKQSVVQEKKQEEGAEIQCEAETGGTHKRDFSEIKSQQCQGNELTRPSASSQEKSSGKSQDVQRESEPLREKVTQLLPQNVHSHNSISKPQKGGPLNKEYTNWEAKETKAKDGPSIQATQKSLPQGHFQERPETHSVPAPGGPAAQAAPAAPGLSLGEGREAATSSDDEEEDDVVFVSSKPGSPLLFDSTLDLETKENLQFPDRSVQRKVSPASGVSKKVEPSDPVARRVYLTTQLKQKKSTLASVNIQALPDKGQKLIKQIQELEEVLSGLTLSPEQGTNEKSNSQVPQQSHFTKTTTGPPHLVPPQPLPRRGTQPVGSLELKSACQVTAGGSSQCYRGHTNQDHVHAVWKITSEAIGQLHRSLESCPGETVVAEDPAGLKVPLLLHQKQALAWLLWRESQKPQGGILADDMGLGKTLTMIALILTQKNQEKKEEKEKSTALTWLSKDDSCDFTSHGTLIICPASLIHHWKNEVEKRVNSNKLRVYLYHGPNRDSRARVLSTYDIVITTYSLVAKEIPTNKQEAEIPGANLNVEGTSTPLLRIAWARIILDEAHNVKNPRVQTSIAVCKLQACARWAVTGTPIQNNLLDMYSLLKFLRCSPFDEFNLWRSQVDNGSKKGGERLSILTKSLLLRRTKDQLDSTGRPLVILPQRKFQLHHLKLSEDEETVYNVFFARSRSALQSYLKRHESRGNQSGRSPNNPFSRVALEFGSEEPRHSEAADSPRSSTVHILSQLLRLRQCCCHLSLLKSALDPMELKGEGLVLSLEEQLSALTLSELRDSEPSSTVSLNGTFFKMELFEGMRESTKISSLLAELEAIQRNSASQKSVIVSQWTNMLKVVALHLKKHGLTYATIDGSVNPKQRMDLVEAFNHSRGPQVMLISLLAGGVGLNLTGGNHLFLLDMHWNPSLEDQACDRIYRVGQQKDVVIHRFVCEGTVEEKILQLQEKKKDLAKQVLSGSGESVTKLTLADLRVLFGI
Sequence of UniProt Q5JUR7 (Q5JUR7 whole entry): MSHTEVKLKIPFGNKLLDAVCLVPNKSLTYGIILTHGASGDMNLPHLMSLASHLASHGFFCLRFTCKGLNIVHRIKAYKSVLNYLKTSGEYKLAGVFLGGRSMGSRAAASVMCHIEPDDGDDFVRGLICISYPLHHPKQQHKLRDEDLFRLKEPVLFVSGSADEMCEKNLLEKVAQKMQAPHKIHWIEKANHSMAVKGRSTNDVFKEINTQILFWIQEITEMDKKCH
Sequence of UniProt O60610 (O60610 whole entry): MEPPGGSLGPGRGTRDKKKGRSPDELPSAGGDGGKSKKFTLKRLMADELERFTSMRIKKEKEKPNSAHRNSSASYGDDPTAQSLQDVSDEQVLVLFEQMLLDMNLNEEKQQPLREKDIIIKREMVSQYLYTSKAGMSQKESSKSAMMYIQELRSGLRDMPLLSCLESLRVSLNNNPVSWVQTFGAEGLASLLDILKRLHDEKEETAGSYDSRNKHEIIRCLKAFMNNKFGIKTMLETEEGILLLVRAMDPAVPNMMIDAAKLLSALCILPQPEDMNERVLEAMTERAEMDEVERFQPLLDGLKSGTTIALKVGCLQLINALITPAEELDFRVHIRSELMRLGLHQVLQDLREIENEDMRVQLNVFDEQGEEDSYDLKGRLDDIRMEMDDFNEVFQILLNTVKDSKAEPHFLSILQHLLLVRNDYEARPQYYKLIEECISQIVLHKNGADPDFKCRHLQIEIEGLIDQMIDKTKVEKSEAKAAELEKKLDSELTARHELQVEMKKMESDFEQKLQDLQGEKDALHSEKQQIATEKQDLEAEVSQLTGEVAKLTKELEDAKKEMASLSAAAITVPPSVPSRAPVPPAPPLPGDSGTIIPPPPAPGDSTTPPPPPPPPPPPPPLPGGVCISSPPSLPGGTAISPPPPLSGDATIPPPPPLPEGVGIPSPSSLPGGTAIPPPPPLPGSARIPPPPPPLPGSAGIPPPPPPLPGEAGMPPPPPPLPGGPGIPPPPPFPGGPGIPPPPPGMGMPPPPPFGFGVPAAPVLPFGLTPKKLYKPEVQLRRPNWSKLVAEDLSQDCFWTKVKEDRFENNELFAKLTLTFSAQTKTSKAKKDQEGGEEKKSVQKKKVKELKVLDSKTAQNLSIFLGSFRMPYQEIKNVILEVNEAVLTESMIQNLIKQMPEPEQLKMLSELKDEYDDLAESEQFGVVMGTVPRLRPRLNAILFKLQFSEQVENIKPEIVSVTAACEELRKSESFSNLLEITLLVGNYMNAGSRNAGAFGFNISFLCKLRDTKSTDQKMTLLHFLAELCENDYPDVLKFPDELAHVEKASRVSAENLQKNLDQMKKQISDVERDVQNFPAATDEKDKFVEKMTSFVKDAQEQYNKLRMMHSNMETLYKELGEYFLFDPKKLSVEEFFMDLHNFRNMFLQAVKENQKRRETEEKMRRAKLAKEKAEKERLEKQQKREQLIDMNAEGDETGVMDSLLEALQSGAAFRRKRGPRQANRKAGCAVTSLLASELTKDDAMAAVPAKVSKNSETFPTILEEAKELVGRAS
Sequence of UniProt O43598 (O43598 whole entry): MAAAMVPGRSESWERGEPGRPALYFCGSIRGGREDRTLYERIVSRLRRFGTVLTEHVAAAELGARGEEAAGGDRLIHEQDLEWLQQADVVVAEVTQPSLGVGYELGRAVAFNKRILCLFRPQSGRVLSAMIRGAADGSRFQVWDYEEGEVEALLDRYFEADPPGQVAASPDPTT
Sequence of UniProt P60842 (P60842 whole entry): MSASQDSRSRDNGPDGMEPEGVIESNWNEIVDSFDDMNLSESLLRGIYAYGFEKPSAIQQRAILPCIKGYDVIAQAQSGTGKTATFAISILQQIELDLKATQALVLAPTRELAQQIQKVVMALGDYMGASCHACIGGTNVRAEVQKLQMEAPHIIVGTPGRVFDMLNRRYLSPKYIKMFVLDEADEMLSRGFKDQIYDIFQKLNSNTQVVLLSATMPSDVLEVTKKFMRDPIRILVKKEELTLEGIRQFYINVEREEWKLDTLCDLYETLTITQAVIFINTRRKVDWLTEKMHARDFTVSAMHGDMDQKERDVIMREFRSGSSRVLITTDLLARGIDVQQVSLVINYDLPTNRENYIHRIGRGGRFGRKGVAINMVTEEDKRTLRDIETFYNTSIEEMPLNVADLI
Sequence of UniProt Q9UBT2 (Q9UBT2 whole entry): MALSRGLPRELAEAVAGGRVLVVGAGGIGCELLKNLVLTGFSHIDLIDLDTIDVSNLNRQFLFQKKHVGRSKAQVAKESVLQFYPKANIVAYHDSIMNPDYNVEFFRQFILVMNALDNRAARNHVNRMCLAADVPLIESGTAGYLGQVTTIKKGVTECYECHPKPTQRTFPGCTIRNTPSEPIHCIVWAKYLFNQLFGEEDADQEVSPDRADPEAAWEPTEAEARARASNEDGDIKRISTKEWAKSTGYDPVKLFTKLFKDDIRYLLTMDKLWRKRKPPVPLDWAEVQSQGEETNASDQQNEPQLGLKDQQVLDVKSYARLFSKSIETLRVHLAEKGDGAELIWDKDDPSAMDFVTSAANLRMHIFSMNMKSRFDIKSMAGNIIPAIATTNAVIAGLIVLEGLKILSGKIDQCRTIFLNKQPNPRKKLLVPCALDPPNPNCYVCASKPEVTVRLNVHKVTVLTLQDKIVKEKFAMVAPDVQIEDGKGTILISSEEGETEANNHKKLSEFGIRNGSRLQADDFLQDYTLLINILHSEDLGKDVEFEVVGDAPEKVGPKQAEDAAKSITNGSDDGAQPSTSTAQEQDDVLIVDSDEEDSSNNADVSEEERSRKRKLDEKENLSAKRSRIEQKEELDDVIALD
Sequence of UniProt P62316 (P62316 whole entry): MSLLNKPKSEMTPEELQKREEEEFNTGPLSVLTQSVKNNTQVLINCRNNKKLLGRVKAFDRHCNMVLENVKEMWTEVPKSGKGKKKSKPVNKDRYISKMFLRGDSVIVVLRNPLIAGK
Sequence of UniProt Q13630 (Q13630 whole entry): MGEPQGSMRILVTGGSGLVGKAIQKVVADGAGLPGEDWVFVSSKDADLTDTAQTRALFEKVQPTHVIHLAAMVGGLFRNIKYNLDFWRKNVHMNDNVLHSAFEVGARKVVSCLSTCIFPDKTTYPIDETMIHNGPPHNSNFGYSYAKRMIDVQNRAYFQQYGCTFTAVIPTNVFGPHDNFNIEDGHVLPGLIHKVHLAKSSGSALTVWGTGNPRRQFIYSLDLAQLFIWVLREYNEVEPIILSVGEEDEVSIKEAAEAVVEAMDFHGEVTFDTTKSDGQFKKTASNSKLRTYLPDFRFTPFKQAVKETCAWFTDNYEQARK
Sequence of UniProt Q13509 (Q13509 whole entry): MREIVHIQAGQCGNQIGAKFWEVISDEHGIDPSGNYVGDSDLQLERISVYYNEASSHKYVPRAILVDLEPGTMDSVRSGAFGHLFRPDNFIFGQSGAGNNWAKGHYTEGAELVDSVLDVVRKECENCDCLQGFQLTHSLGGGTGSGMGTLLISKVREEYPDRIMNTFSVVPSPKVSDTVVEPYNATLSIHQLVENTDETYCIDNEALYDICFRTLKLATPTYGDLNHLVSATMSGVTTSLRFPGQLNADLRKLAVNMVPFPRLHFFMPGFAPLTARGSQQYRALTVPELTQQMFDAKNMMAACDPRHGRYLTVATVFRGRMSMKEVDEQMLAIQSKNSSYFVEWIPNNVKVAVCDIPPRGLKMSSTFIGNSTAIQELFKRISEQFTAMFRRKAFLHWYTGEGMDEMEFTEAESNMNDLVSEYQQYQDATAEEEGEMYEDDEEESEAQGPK
Sequence of UniProt P61956 (P61956 whole entry): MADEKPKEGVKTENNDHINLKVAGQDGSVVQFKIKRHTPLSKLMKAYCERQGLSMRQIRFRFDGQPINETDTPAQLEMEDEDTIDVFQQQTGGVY
Sequence of UniProt P62308 (P62308 whole entry): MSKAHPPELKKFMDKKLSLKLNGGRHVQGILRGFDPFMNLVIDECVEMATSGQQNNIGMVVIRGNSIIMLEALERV

Row | pEC50 | Target
1 | 2.77 | TRIM21 (effect direction: stabilized) (UniProt P19474)
2 | < 2.7 | TRIM28 (effect direction: stabilized) (UniProt Q13263)
3 | 3.31 | TRMU (effect direction: stabilized) (UniProt O75648)
4 | 3.12 | TSEN2 (effect direction: stabilized) (UniProt Q8NCE0)
5 | < 2.7 | TSEN34 (effect direction: stabilized) (UniProt Q9BSV6)
6 | 3.51 | TSR1 (effect direction: destabilized) (UniProt Q2NL82)
7 | 2.73 | TSTA3 (effect direction: stabilized) (UniProt Q13630)
8 | 2.91 | TTC33 (effect direction: stabilized) (UniProt Q6PID6)
9 | 3.19 | TTC37 (effect direction: stabilized) (UniProt Q6PGP7)
10 | 3.17 | TTF2 (effect direction: stabilized) (UniProt Q9UNY4)
11 | 3.5 | TUBA1C (effect direction: stabilized) (UniProt Q9BQE3)
12 | 3.69 | TUBB3 (effect direction: stabilized) (UniProt Q13509)
13 | 2.93 | TUT1 (effect direction: stabilized) (UniProt Q9H6E5)
14 | < 2.7 | UBA2 (effect direction: stabilized) (UniProt Q9UBT2)
15 | 3.86 | UBA3 (effect direction: stabilized) (UniProt Q8TBC4)
16 | 3.81 | UBA5 (effect direction: stabilized) (UniProt Q9GZZ9)
17 | < 2.7 | UBE2O (effect direction: stabilized) (UniProt Q9C0C9)
18 | < 2.7 | UBE3A (effect direction: stabilized) (UniProt Q05086)
19 | 2.88 | UBLCP1 (effect direction: destabilized) (UniProt Q8WVY7)
20 | < 2.7 | UCHL5 (effect direction: stabilized) (UniProt Q9Y5K5)
21 | 3.11 | UGDH (effect direction: stabilized) (UniProt O60701)
22 | < 2.7 | UMPS (effect direction: stabilized) (UniProt P11172)
23 | < 2.7 | USO1 (effect direction: stabilized) (UniProt O60763)
24 | < 2.7 | USP5 (effect direction: stabilized) (UniProt P45974)
25 | < 2.7 | USP14 (effect direction: stabilized) (UniProt P54578)

Row | pEC50 | Target
26 | < 2.7 | USP47 (effect direction: stabilized) (UniProt Q96K76)
27 | 2.92 | UTP15 (effect direction: destabilized) (UniProt Q8TED0)
28 | 4.28 | UniProt O00487 (effect direction: stabilized)
29 | 3.26 | UniProt O14757 (effect direction: stabilized)
30 | 3.5 | UniProt O14920 (effect direction: stabilized)
31 | 3.25 | UniProt O14965 (effect direction: stabilized)
32 | 3.24 | UniProt O15530 (effect direction: stabilized)
33 | 4.16 | UniProt O43314 (effect direction: stabilized)
34 | 3.25 | UniProt O43598 (effect direction: stabilized)
35 | < 2.7 | UniProt O43847 (effect direction: stabilized)
36 | 3.63 | UniProt O43929 (effect direction: stabilized)
37 | 3.06 | UniProt O60524 (effect direction: destabilized)
38 | < 2.7 | UniProt O60610 (effect direction: stabilized)
39 | < 2.7 | UniProt O75521 (effect direction: stabilized)
40 | 3.14 | UniProt O94826 (effect direction: stabilized)
41 | 3.27 | UniProt O95071 (effect direction: stabilized)
42 | < 2.7 | UniProt O95319 (effect direction: stabilized)
43 | 3.33 | UniProt O96017 (effect direction: stabilized)
44 | 2.96 | UniProt P0C0S5 (effect direction: stabilized)
45 | 2.92 | UniProt P0C0S8 (effect direction: stabilized)
46 | 3.72 | UniProt P0DMV8 (effect direction: stabilized)
47 | 3.07 | UniProt P04350 (effect direction: stabilized)
48 | 2.93 | UniProt P06493 (effect direction: stabilized)
49 | 2.87 | UniProt P14618 (effect direction: destabilized)
50 | 3.7 | UniProt P23443 (effect direction: stabilized)

Row | pEC50 | Target
51 | 4.02 | UniProt P24539 (effect direction: stabilized)
52 | 3.32 | UniProt P24928 (effect direction: destabilized)
53 | 3.38 | UniProt P25098 (effect direction: stabilized)
54 | < 2.7 | UniProt P26639 (effect direction: stabilized)
55 | 3.54 | UniProt P27361 (effect direction: stabilized)
56 | 3.16 | UniProt P28482 (effect direction: stabilized)
57 | 3.31 | UniProt P35626 (effect direction: stabilized)
58 | 3.55 | UniProt P36507 (effect direction: stabilized)
59 | < 2.7 | UniProt P42285 (effect direction: stabilized)
60 | 3.14 | UniProt P45984 (effect direction: stabilized)
61 | 3.3 | UniProt P48729 (effect direction: stabilized)
62 | < 2.7 | UniProt P49591 (effect direction: stabilized)
63 | 3.37 | UniProt P49841 (effect direction: stabilized)
64 | 3.89 | UniProt P51812 (effect direction: stabilized)
65 | < 2.7 | UniProt P52434 (effect direction: stabilized)
66 | 3.47 | UniProt P60842 (effect direction: stabilized)
67 | 3 | UniProt P60891 (effect direction: stabilized)
68 | 3.1 | UniProt P61163 (effect direction: stabilized)
69 | < 2.7 | UniProt P61254 (effect direction: destabilized)
70 | > 5.3 | UniProt P61353 (effect direction: destabilized)
71 | 3.27 | UniProt P61513 (effect direction: destabilized)
72 | 3.07 | UniProt P61956 (effect direction: destabilized)
73 | 3.68 | UniProt P62081 (effect direction: destabilized)
74 | 4.55 | UniProt P62191 (effect direction: stabilized)
75 | 4.18 | UniProt P62195 (effect direction: stabilized)

Row | pEC50 | Target
76 | 3.14 | UniProt P62241 (effect direction: destabilized)
77 | 2.97 | UniProt P62263 (effect direction: destabilized)
78 | 3.33 | UniProt P62266 (effect direction: destabilized)
79 | < 2.7 | UniProt P62269 (effect direction: destabilized)
80 | 3.88 | UniProt P62277 (effect direction: destabilized)
81 | 4.05 | UniProt P62280 (effect direction: destabilized)
82 | 2.78 | UniProt P62308 (effect direction: destabilized)
83 | < 2.7 | UniProt P62316 (effect direction: destabilized)
84 | < 2.7 | UniProt P62318 (effect direction: destabilized)
85 | < 2.7 | UniProt P62495 (effect direction: stabilized)
86 | 3.15 | UniProt P62753 (effect direction: destabilized)
87 | 3.01 | UniProt P62826 (effect direction: destabilized)
88 | 2.99 | UniProt P62841 (effect direction: destabilized)
89 | 4.16 | UniProt P62847 (effect direction: destabilized)
90 | 3 | UniProt P62899 (effect direction: destabilized)
91 | 4.09 | UniProt P68400 (effect direction: stabilized)
92 | 2.79 | UniProt P68431 (effect direction: stabilized)
93 | 2.83 | UniProt P78356 (effect direction: stabilized)
94 | 3.11 | UniProt P83731 (effect direction: destabilized)
95 | < 2.7 | UniProt P84085 (effect direction: destabilized)
96 | 3.01 | UniProt P84095 (effect direction: destabilized)
97 | 2.89 | UniProt P84098 (effect direction: destabilized)
98 | 3.36 | UniProt Q5JUR7 (effect direction: stabilized)
99 | 2.92 | UniProt Q5VZE5 (effect direction: stabilized)
